Laboratory results from PubChem BioAssay (NCI).
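Exposure lasted 48 hours, with cells grown in 96-well plates and compounds tested at five concentrations. The concentration for 50% growth inhibition is given as GI50. At the TGI there is no net growth.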

Assays:
Assay in all cases: inhibition of tumour cell growth, NCI panel, 48 h
786-0 renal = test system: 786-0 renal
A498 renal = test system: A498 renal
A549 NSCLC = test system: A549 NSCLC
ACHN renal = test system: ACHN renal
BT-549 breast = test system: BT-549 breast
COLO 205 colon = test system: COLO 205 colon
DU-145 prostate = test system: DU-145 prostate
EKVX NSCLC = test system: EKVX NSCLC
HCC-2998 colon = test system: HCC-2998 colon
HCT-116 colon = test system: HCT-116 colon
HCT-15 colon = test system: HCT-15 colon
HOP-62 NSCLC = test system: HOP-62 NSCLC
HOP-92 NSCLC = test system: HOP-92 NSCLC
HS 578T breast = test system: HS 578T breast
HT29 colon = test system: HT29 colon
KM12 colon = test system: KM12 colon
LOX IMVI melanoma = test system: LOX IMVI melanoma
M14 melanoma = test system: M14 melanoma
MALME-3M melanoma = test system: MALME-3M melanoma
MCF7 breast = test system: MCF7 breast
MDA-MB-231 breast = test system: MDA-MB-231 breast
MDA-MB-435 = test system: MDA-MB-435
NCI-H23 lung = test system: NCI-H23 lung
NCI-H460 lung = test system: NCI-H460 lung
NCI-H522 lung = test system: NCI-H522 lung
NCI/ADR-RES ovarian = test system: NCI/ADR-RES ovarian
OVCAR-3 ovarian = test system: OVCAR-3 ovarian
OVCAR-4 ovarian = test system: OVCAR-4 ovarian
OVCAR-5 ovarian = test system: OVCAR-5 ovarian
OVCAR-8 ovarian = test system: OVCAR-8 ovarian
PC-3 prostate = test system: PC-3 prostate
RXF 393 renal = test system: RXF 393 renal
SF-268 CNS = test system: SF-268 CNS
SF-295 CNS = test system: SF-295 CNS
SF-539 CNS = test system: SF-539 CNS
SK-MEL-2 melanoma = test system: SK-MEL-2 melanoma
SK-MEL-28 melanoma = test system: SK-MEL-28 melanoma
SK-MEL-5 melanoma = test system: SK-MEL-5 melanoma
SK-OV-3 ovarian = test system: SK-OV-3 ovarian
SN12C renal = test system: SN12C renal
SNB-19 CNS = test system: SNB-19 CNS
SNB-75 CNS = test system: SNB-75 CNS
SW-620 colon = test system: SW-620 colon
T-47D breast = test system: T-47D breast
TK-10 renal = test system: TK-10 renal
U251 CNS = test system: U251 CNS
UACC-257 melanoma = test system: UACC-257 melanoma
UACC-62 melanoma = test system: UACC-62 melanoma
UO-31 renal = test system: UO-31 renal
CAKI-1 renal = test system: CAKI-1 renal
CCRF-CEM leukemia = test system: CCRF-CEM leukemia
HL-60(TB) leukemia = test system: HL-60(TB) leukemia
K-562 leukemia = test system: K-562 leukemia
MOLT-4 leukemia = test system: MOLT-4 leukemia
NCI-H226 lung = test system: NCI-H226 lung
RPMI-8226 leukemia = test system: RPMI-8226 leukemia
SR leukemia = test system: SR leukemia

Cc1cc(N(CCNc2ccnc3cc(Cl)ccc23)Cc2ccco2)nc(Cl)n1
GI50 (786-0 renal): 1570 nM
TGI (786-0 renal): 2910 nM
GI50 (A498 renal): 1870 nM
TGI (A498 renal): 4210 nM
GI50 (A549 NSCLC): 1850 nM
TGI (A549 NSCLC): 3420 nM
GI50 (ACHN renal): 1650 nM
TGI (ACHN renal): 3020 nM
GI50 (BT-549 breast): 1690 nM
TGI (BT-549 breast): 3140 nM
GI50 (COLO 205 colon): 1710 nM
TGI (COLO 205 colon): 3300 nM
GI50 (DU-145 prostate): 1990 nM
TGI (DU-145 prostate): 4150 nM
GI50 (EKVX NSCLC): 1610 nM
TGI (EKVX NSCLC): 3580 nM
GI50 (HCC-2998 colon): 1720 nM
TGI (HCC-2998 colon): 3300 nM
GI50 (HCT-116 colon): 1480 nM
TGI (HCT-116 colon): 2840 nM
GI50 (HCT-15 colon): 1640 nM
TGI (HCT-15 colon): 3190 nM
GI50 (HOP-62 NSCLC): 1680 nM
TGI (HOP-62 NSCLC): 3380 nM
GI50 (HOP-92 NSCLC): 1470 nM
TGI (HOP-92 NSCLC): 2940 nM
GI50 (HS 578T breast): 2430 nM
TGI (HS 578T breast): 6280 nM
GI50 (HT29 colon): 1580 nM
TGI (HT29 colon): 3240 nM
GI50 (KM12 colon): 1890 nM
TGI (KM12 colon): 3950 nM
GI50 (LOX IMVI melanoma): 1590 nM
TGI (LOX IMVI melanoma): 3070 nM
GI50 (M14 melanoma): 1600 nM
TGI (M14 melanoma): 3010 nM
GI50 (MALME-3M melanoma): 1780 nM
TGI (MALME-3M melanoma): 3330 nM
GI50 (MCF7 breast): 1650 nM
TGI (MCF7 breast): 3320 nM
GI50 (MDA-MB-231 breast): 1680 nM
TGI (MDA-MB-231 breast): 3240 nM
GI50 (MDA-MB-435): 1720 nM
TGI (MDA-MB-435): 3370 nM
GI50 (NCI-H23 lung): 1770 nM
TGI (NCI-H23 lung): 3930 nM
GI50 (NCI-H460 lung): 1910 nM
TGI (NCI-H460 lung): 3600 nM
GI50 (NCI-H522 lung): 1750 nM
TGI (NCI-H522 lung): 3710 nM
GI50 (NCI/ADR-RES ovarian): 1860 nM
TGI (NCI/ADR-RES ovarian): 3960 nM
GI50 (OVCAR-3 ovarian): 1610 nM
TGI (OVCAR-3 ovarian): 3010 nM
GI50 (OVCAR-4 ovarian): 1490 nM
TGI (OVCAR-4 ovarian): 2950 nM
GI50 (OVCAR-5 ovarian): 1680 nM
TGI (OVCAR-5 ovarian): 3230 nM
GI50 (OVCAR-8 ovarian): 2060 nM
TGI (OVCAR-8 ovarian): 4420 nM
GI50 (PC-3 prostate): 1710 nM
TGI (PC-3 prostate): 3180 nM
GI50 (RXF 393 renal): 1270 nM
TGI (RXF 393 renal): 2680 nM
GI50 (SF-268 CNS): 2160 nM
TGI (SF-268 CNS): 6010 nM
GI50 (SF-295 CNS): 1510 nM
TGI (SF-295 CNS): 3000 nM
GI50 (SF-539 CNS): 1820 nM
TGI (SF-539 CNS): 3320 nM
GI50 (SK-MEL-2 melanoma): 1900 nM
TGI (SK-MEL-2 melanoma): 3830 nM
GI50 (SK-MEL-28 melanoma): 1740 nM
TGI (SK-MEL-28 melanoma): 3380 nM
GI50 (SK-MEL-5 melanoma): 1720 nM
TGI (SK-MEL-5 melanoma): 3130 nM
GI50 (SK-OV-3 ovarian): 1660 nM
TGI (SK-OV-3 ovarian): 3130 nM
GI50 (SN12C renal): 1790 nM
TGI (SN12C renal): 3440 nM
GI50 (SNB-19 CNS): 1910 nM
TGI (SNB-19 CNS): 3740 nM
GI50 (SNB-75 CNS): 1470 nM
TGI (SNB-75 CNS): 2970 nM
GI50 (SW-620 colon): 1750 nM
TGI (SW-620 colon): 3460 nM
GI50 (T-47D breast): 1520 nM
TGI (T-47D breast): 3580 nM
GI50 (TK-10 renal): 1810 nM
TGI (TK-10 renal): 3210 nM
GI50 (U251 CNS): 1620 nM
TGI (U251 CNS): 3010 nM
GI50 (UACC-257 melanoma): 1900 nM
TGI (UACC-257 melanoma): 3680 nM
GI50 (UACC-62 melanoma): 1780 nM
TGI (UACC-62 melanoma): 3380 nM
GI50 (UO-31 renal): 1490 nM
TGI (UO-31 renal): 2890 nM

COc1cc(/C=C/C(=O)c2c(C)nc3ccccc3c2C)ccc1OCCCOc1cc2c(cc1OC)C(=O)N1CCC[C@H]1C=N2
GI50 (A498 renal): 19.4 nM
TGI (A498 renal): 41.9 nM
GI50 (A549 NSCLC): 26.8 nM
TGI (A549 NSCLC): 62.3 nM
GI50 (ACHN renal): 31.3 nM
TGI (ACHN renal): 106 nM
GI50 (BT-549 breast): 14.9 nM
TGI (BT-549 breast): 42.8 nM
GI50 (CAKI-1 renal): 29.1 nM
TGI (CAKI-1 renal): 138 nM
TGI (CCRF-CEM leukemia): 21.5 nM
GI50 (COLO 205 colon): 21.1 nM
TGI (COLO 205 colon): 45.3 nM
GI50 (DU-145 prostate): 27.9 nM
TGI (DU-145 prostate): 80.2 nM
GI50 (EKVX NSCLC): 55.5 nM
TGI (EKVX NSCLC): 453 nM
GI50 (HCC-2998 colon): 18.3 nM
TGI (HCC-2998 colon): 38.6 nM
GI50 (HCT-15 colon): 278 nM
TGI (HCT-15 colon): 1010 nM
GI50 (HL-60(TB) leukemia): 35.6 nM
GI50 (HOP-62 NSCLC): 30.3 nM
TGI (HOP-62 NSCLC): 60.9 nM
GI50 (HOP-92 NSCLC): 36.7 nM
TGI (HOP-92 NSCLC): 275 nM
GI50 (HS 578T breast): 20.9 nM
TGI (HS 578T breast): 57.7 nM
GI50 (HT29 colon): 28 nM
TGI (HT29 colon): 3030 nM
GI50 (K-562 leukemia): 11 nM
TGI (K-562 leukemia): 34.6 nM
GI50 (LOX IMVI melanoma): 19.3 nM
TGI (LOX IMVI melanoma): 60.2 nM
GI50 (MDA-MB-231 breast): 30.6 nM
TGI (MDA-MB-231 breast): 98.5 nM
GI50 (MDA-MB-435): 19.7 nM
TGI (MDA-MB-435): 40 nM
GI50 (MOLT-4 leukemia): 32.3 nM
GI50 (NCI-H226 lung): 22.7 nM
TGI (NCI-H226 lung): 61.6 nM
GI50 (NCI-H23 lung): 19.7 nM
TGI (NCI-H23 lung): 45.9 nM
GI50 (NCI-H460 lung): 29.2 nM
GI50 (NCI-H522 lung): 33.7 nM
TGI (NCI-H522 lung): 22900 nM
GI50 (NCI/ADR-RES ovarian): 393 nM
TGI (NCI/ADR-RES ovarian): 5920 nM
GI50 (OVCAR-3 ovarian): 24.7 nM
TGI (OVCAR-3 ovarian): 55.6 nM
GI50 (OVCAR-4 ovarian): 44.3 nM
TGI (OVCAR-4 ovarian): 31500 nM
GI50 (OVCAR-5 ovarian): 30 nM
TGI (OVCAR-5 ovarian): 86.8 nM
GI50 (OVCAR-8 ovarian): 32.9 nM
TGI (OVCAR-8 ovarian): > 38100 nM
GI50 (PC-3 prostate): 32.6 nM
TGI (PC-3 prostate): 1150 nM
GI50 (RPMI-8226 leukemia): 14 nM
TGI (RPMI-8226 leukemia): 47.7 nM
GI50 (SF-539 CNS): 23.9 nM
TGI (SF-539 CNS): 56.3 nM
GI50 (SK-MEL-2 melanoma): 87.7 nM
TGI (SK-MEL-2 melanoma): 331 nM
GI50 (SK-MEL-28 melanoma): 21.4 nM
TGI (SK-MEL-28 melanoma): 44 nM
GI50 (SK-OV-3 ovarian): 64 nM
TGI (SK-OV-3 ovarian): 1130 nM
GI50 (SN12C renal): 35.3 nM
TGI (SN12C renal): 327 nM
GI50 (SNB-19 CNS): 187 nM
GI50 (SNB-75 CNS): 22.6 nM
TGI (SNB-75 CNS): 114 nM
GI50 (SR leukemia): 32.1 nM
GI50 (T-47D breast): 41 nM
GI50 (TK-10 renal): 25.7 nM
TGI (TK-10 renal): 68.2 nM
GI50 (UACC-257 melanoma): 26.9 nM
TGI (UACC-257 melanoma): 83.8 nM
GI50 (UACC-62 melanoma): 17 nM
TGI (UACC-62 melanoma): 32.1 nM
GI50 (UO-31 renal): 58.3 nM
TGI (UO-31 renal): 817 nM
